By IC50 is commonly meant the concentration that inhibits the measured activity by half.

Molecules are shown by their SMILES. Counter-ions that a name gives are not always drawn.

The test relates to A549 human lung epithelium cell line. Description: RANTES production in response to TNF-α from A549 cells. Format: cell-based. As to conditions: Homo sapiens, A549, A549 cells, 100 ng/ml TNF-α, read-out: Cellular activity grade (A549) (Cellular IC50). In a few lines:
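Cells (4×10^4/well) in D-MEM/10% FCS preincubated 1 h at 37 °C with compound in 1% DMSO, then stimulated with 100 ng/ml TNF-α for 24 h. Supernatant RANTES quantified by Eu-labelled sandwich immunoassay (time-resolved fluorescence, ex 340/em 615 nm) against recombinant human RANTES standard.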
Consider `CCCN(CCC)C1CCCC(c2cc(-c3ccccc3O)nc(N)c2C#N)C1` (stereo not drawn) [Example 1-43], for which the IC50 was below 1 µM.

Consider `O=C1CCc2c(C3CCCNC3)cc(-c3ccccc3O)nc2N1` (stereo not drawn) [Example 27-1, 7-(2-hydroxyphenyl)-5-(3-piperidinyl)-3,4-dihydro-1,8-naphthyridin-2(1H)-one hydrochloride], for which the 50% inhibitory concentration (IC50) is below 1 µM.

For the compound `N#Cc1c(C2CNCCN2)cc(-c2ccccc2O)nc1N` (stereo not drawn) [Example 1-15], the IC50 lay within 1 to 10 µM.

With `N#Cc1c(C2CCNCC2)cc(-c2ccccc2O)nc1N` [Example 1-13], the IC50 is below 1 µM.

On to `N#Cc1c(C2CCC(N)CC2)cc(-c2ccccc2O)nc1N` (stereo not drawn) [Example 1-22], for which the IC50 is below 1 µM.

In the case of `N#Cc1c([C@@H](N)Cc2ccc(F)cc2)cc(-c2ccccc2O)nc1N` [Example 1-30], the IC50 was in the range of 1 to 10 µM.

Consider `N#Cc1c(C2CCCNC2)cc(-c2c(O)cccc2OCC2CCCCO2)nc1N` (stereo not drawn) [Example 2-79], for which the IC50 is below 1 µM.

Turning to `N#Cc1c(C2CCCCN2)cc(-c2ccccc2O)nc1N` (stereo not drawn) [Example 1-14], the IC50 lay in the range of 1 to 10 µM.

In the case of `N#Cc1c(C2CCCNC2)cc(-c2c(O)cccc2OCc2ccc(C(F)(F)F)cc2)nc1N` (stereo not drawn) [Example 2-10], the IC50 was 1 to 10 µM.

Take `N#Cc1c(C2CCCNC2)cc(-c2ccc(O)cc2O)nc1N` (stereo not drawn) [Example 1-18]: the IC50 was 1 to 10 µM.

As to `CC(C)(C)C(=O)COc1cccc(O)c1-c1cc(C2CCCNC2)c(C#N)c(N)n1` (stereo not drawn) [Example 2-77], the IC50 is below 1 µM.

With `N#Cc1c(C2CCCC(N)C2)cc(-c2ccccc2O)nc1N` (stereo not drawn) [Example 1-23], the half-inhibitory concentration (IC50) is below 1 µM.

On to `N#Cc1c(C2CCCNC2)cc(-c2c(O)cccc2OCC2CCCO2)nc1N` (stereo not drawn) [Example 2-80], for which the 50% inhibitory concentration (IC50) is below 1 µM.

With `O=c1[nH]c2nc(-c3c(O)cccc3OCC3CC3)cc(C3CCCNC3)c2cc1F` (stereo not drawn) [Example 25-2, 7-[2-(cyclopropylmethoxy)-6-hydroxyphenyl]-3-fluoro-5-(3-piperidinyl)-1,8-naphthyridin-2(1H)-one hydrochloride], the IC50 is below 1 µM.

As to `N#Cc1c(C2CCCNC2)cc(-c2c(O)cccc2OCc2ccccc2[N+](=O)[O-])nc1N` (stereo not drawn) [Example 2-12], the IC50 fell in the range of 1 to 10 µM.

Take `N#Cc1c(C2CCCNC2)cc(-c2c(O)cccc2OCc2ccc3ccccc3c2)nc1N` (stereo not drawn) [Example 2-21]: the IC50 was below 1 µM.

Turning to `CC(C)CCCOc1cccc(O)c1-c1cc(C2CCCNC2)c(C#N)c(N)n1` (stereo not drawn) [Example 2-63], the 50% inhibitory concentration (IC50) is below 1 µM.

Take `NC(=O)c1cc2c(C3CCNCC3)cc(-c3c(O)cccc3OCC3CC3)nc2[nH]c1=O` [Example 25-3, 7-[2-(cyclopropylmethoxy)-6-hydroxyphenyl]-2-oxo-5-(4-piperidinyl)-1,2-dihydro-1,8-naphthyridine-3-carboxamide hydrochloride]: the IC50 was in the range of 1 to 10 µM.

Consider `N#Cc1c(C2CCCNC2)cc(-c2c(O)cccc2OCCC2CCCCC2)nc1N` (stereo not drawn) [Example 2-61], for which the IC50 was below 1 µM.

Consider `CN(C)CCOc1cccc(O)c1-c1cc(C2CCCNC2)c(C#N)c(N)n1` (stereo not drawn) [Example 2-85], for which the IC50 is 1 to 10 µM.

With `C[C@H](N)c1cc(-c2ccccc2O)nc(N)c1C#N` [Example 1-32], the IC50 was 1 to 10 µM.

With `N#Cc1c(C2CCCN(C(=O)CCN3CCCCC3)C2)cc(-c2ccccc2O)nc1N` (stereo not drawn) [Example 1-41], the IC50 fell in the range of 1 to 10 µM.

Take `CCCCCOc1cccc(O)c1-c1cc(C2CCNCC2)c(C#N)c(N)n1` [Example 2-69]: the concentration for half-maximal inhibition (IC50) was below 1 µM.

`N#Cc1c(C2CCCNC2)cc(-c2c(O)cccc2OCC2CCC2)nc1N` (stereo not drawn) [Example 2-62]: the IC50 was below 1 µM.

For `O=C1Nc2nc(-c3c(O)cccc3OCC3CC3)cc(C3CCCNC3)c2CN1C(=O)NC1CCCCC1` (stereo not drawn) [Example 24-3, N-cyclohexyl-7-[2-(cyclopropylmethoxy)-6-hydroxyphenyl]-2-oxo-5-(3-piperidinyl)-1,4-dihydropyrido[2,3-d]pyrimidine-3(2H)-carboxamide hydrochloride], the IC50 is below 1 µM.

As to `N#Cc1c(C2CCNCC2)cc(-c2c(O)cccc2OCC2CCC2)nc1N` [Example 2-68], the IC50 was below 1 µM.

As for `Cc1cccc(COc2cccc(O)c2-c2cc(C3CCCNC3)c(C#N)c(N)n2)c1` (stereo not drawn) [Example 2-07], the IC50 was in the range of 1 to 10 µM.

With `N#Cc1c(C2CCCNC2)cc(-c2cccc(Cl)c2O)nc1N` (stereo not drawn) [Example 1-20], the IC50 is below 1 µM.

Regarding `C=CCOc1cccc(O)c1-c1cc(C2CCNCC2)c(C#N)c(N)n1` [Example 2-74], the IC50 was below 1 µM.

Consider `CCOC(=O)N1Cc2c(C3CCCNC3)cc(-c3c(O)cccc3OCC3CC3)nc2NC1=O` (stereo not drawn) [Example 24-2, ethyl 7-[2-(cyclopropylmethoxy)-6-hydroxyphenyl]-2-oxo-5-(3-piperidinyl)-1,4-dihydropyrido[2,3-d]pyrimidine-3(2H)-carboxylate hydrochloride], for which the IC50 is below 1 µM.
